Measurements reported in PMC10531093, “First-Generation Synthetic Cathinones Produce Arrhythmia in Zebrafish Eleutheroembryos: A New Approach Methodology for New Psychoactive Substances Cardiotoxicity Evaluation” (International Journal of Molecular Sciences, 2023).
Where two headings read alike, the source gives them in different places.

Key:
Type in all cases: in vivo, Danio rerio
[1] = system: zebrafish embryos; assay: Arrhythmicity index (AI, heart rate variability) after 2 h exposure; conditions: 500 µM
Description: (§1) Experiments were conducted to assess lethality after 24 h exposure and quantify drug-induced effects on heart rate after 2 h exposure. Experiments were performed on day 4 of zebrafish development (4 dpf). On the day of the experiment, eleutheroembryos (hereafter embryos) were distributed into a 6-well plate (Thermo-Fisher Scientific, Madrid, Spain) by adding 12 embryos into each well with 5 mL of test solution. Embryos were exposed by immersion at 20 min intervals so that they could be mounted individually by ensuring equal exposure times in all groups. Each drug was tested at different concentrations (ranging from 1 to 1000 µM) in parallel with a control group (Goods buffer TAPS alone). The concentration range used was based on previous experiments with MDMA [58].
To avoid the movement of zebrafish embryos during recording, embryos were anesthetized by adding tricaine to exposure medium (0.08 mg/mL) and mounted in 3% methylcellulose (without tricaine) on double depression slides (Paul Marienfeld GmbH & Co. KG, Lauda-Königshofen, Germany) after drug exposure time. […] Embryos were recorded one at a time, and all experiments were consistently conducted at the same time of day, controlling room temperature variation throughout video recordings.
Heartbeat variability was determined by analysis of the interbeat intervals (heart period) (see Figure 7), similar to the analysis described in [61]. […]

[2] = system: zebrafish embryos; assay: AV block 2:1 and ventricular fibrillation after 2 h exposure
Description: as §1
(§2) To avoid the movement of zebrafish embryos during recording, embryos were anesthetized by adding tricaine to exposure medium (0.08 mg/mL) and mounted in 3% methylcellulose (without tricaine) on double depression slides (Paul Marienfeld GmbH & Co. KG, Lauda-Königshofen, Germany) after drug exposure time. […] The slide was then transferred to an inverted light microscope (Nikon eclipse TS100, at 400×/N.A. 0.55, Nikon Instruments Inc., Amsterdam, The Netherlands) fitted with a high-speed video camera (Exilim, CASIO, Shibuya City, Japan). Sequential images of the heart (240 frames per second (fps)) were obtained with the embryo positioned on its side from the lateral position and with a duration of 10 s. Embryos were recorded one at a time, and all experiments were consistently conducted at the same time of day, controlling room temperature variation throughout video recordings.
(§3) Statistical analyses were conducted using GraphPad Prism 9 software. For all endpoints reported as means of mean values, data were considered to have a normal distribution according to the central limit theorem (by which means of random samples from any distribution will themselves have a normal distribution). Statistical comparison was performed by two-way ANOVA, followed by Tukey’s test, which was conducted to assess the effect of concentration and chamber (atrium–ventricle) on heart frequency or AI. Fisher’s Exact test was used for the statistical analysis of the proportion of embryos showing AV block and ventricular fibrillation. Students t-test was used to analyze the ventricular beat rate of zebrafish embryos exposed to the Cm.

[3] = system: zebrafish embryos; assay: Tachycardic effects: beat rate after 10 min exposure at 10 µM, and ventricular beat rate at Cm after 2 h
[4] = system: zebrafish embryos; assay: Twenty-four-hour acute toxicity test (lethality and abnormalities, 4 to 5 dpf); design: Embryos with spasms: dose or concentration left out as unconfirmed; conditions: 24 h exposure between 4 and 5 dpf; for Drug-induced abnormalities: all tested concentrations
Description: as §1
(§4) Embryos at 4 dpf were distributed to 6-well plates, and 10 embryos were placed into each well with 5 mL of drug test solution. Plates were incubated at 26 ± 1 °C under a 14:10 light:dark cycle for 24 h. Following 24 h exposure, endpoints used for assessing lethality (coagulation or lack of heartbeat) and morphological/functional abnormalities were recorded for each treatment group. Each drug was tested at different concentrations, and at least three independent experiments were performed.
(§5) Concentration–response curves were derived from 2 h exposures and the 24 h acute toxicity test as effective concentrations 50 (EC50) and lethal concentrations 50 (LC50), respectively. Concentration–response curves were obtained with a sigmoidal concentration–response equation (Hill equation) using the package drc in R software (v.R-3.6.1).

[5] = as above; design: Embryos with spasms: dose or concentration left out as unconfirmed; conditions: zebrafish (Danio rerio), in vivo, other: immersion in test solution; 24 h exposure, 4 to 5 dpf, TAPS buffer pH 8.6; read-out: LC50 (CI95)
Description: as §1, §4, §5

[6] = system: zebrafish embryos; assay: Chamber-specific heart rate (atrium, ventricle) after 2 h exposure, video recording; conditions: for EC50: Danio rerio, 4 dpf; for Lowest concentration inducing ventricular bradycardia (LOAEC): significant decrease in ventricular heart rate
Description: as §1, §2
To quantify atrial and ventricular heart rates in zebrafish, video recordings were analyzed with ImageJ v.1.53t. A plot of dynamic pixels was obtained by selecting an area of the heart ventricle or atrium with a high deviation of pixel intensity by means of the z-projection function (see Figure S4 for representative selection of heart ventricle and atrium area). The frequency as frames/beat was obtained by analyzing the waveform of dynamic pixels by the Fast Fourier Transform algorithm (FFT) using the “spectrum” function in R. Then, the resulting periodogram provides frequency information in cycles per frame, so to calculate the heart rate frequency (beats/min, bpm), the frequency values were multiplied by the frame rate (240 fps) to convert cycles per frame to cycles per second (Hz) and then multiplied by 60 to convert from Hz to bpm.
as §5, §3

[7] = atrial bradycardia, read-out: EC50 (CI95) ATRIUM heart rate
[8] = ventricular bradycardia, read-out: EC50 (CI95) VENTRICLE heart rate

Structure (SMILES)	Ventricle heartbeat [1]	Lowest concentration provoking AV block [2] [µM]	Embryos with ventricular fibrillation ([2]; 500 µM)	Beat rate after shorter exposure time [3]	Drug-induced abnormalities [4]	LC50 at 24 h [5] [µM]	EC50 [6, 7] [µM]	EC50 [6, 8] [µM]	Lowest concentration inducing ventricular bradycardia (LOAEC) [6] [µM]	Embryos with ventricular fibrillation (AV ratio > 2.5) ([2]; 50 µM)	Embryos with spasms [4] [%]	Fold more potent in inducing bradycardia in the ventricle than in the atria (EC50) [6] [fold]
COC(=O)[C@H]1[C@@H](OC(=O)c2ccccc2)C[C@@H]2CC[C@H]1N2C [Cocaine, cocaine]	no ventricle heartbeat	50	all embryos	significantly increased beat rates	No abnormalities observed	173	> 500	97.2	50			
CNC(C)Cc1ccc2c(c1)OCO2 (stereo not shown) [MDMA, 3,4-methylenedioxy-methamphetamine]		500				180	500	418	250			
CCCC(C(=O)c1ccc2c(c1)OCO2)N1CCCC1 (stereo not shown) [MDPV, 3,4-methylenedioxy-pyrovalerone]		20				135	110	32.7	20	more than half of the embryos tested	21	3.4
CNC(C)C(=O)c1ccc(C)cc1 (stereo not shown) [Mephedrone, mephedrone]		500			No abnormalities observed	147	601	403	250			
CNC(C)C(=O)c1ccc2c(c1)OCO2 (stereo not shown) [Methylone, methylone]		250			No abnormalities observed	127	> 1000	522	250			
